For orientation: melting point means the temperature, or range, at which the solid turns liquid.

`O=C(O)[C@H](Cc1c[nH]c2ccccc12)NC(=O)C1(NC(=O)[C@@H](S)C2CCOCC2)CCCC1` had a melting point of 212 to 215 °C.

Take `CON(C)C(=O)c1ccc(-n2ccnc2)nc1`: the melting point lay within 69 to 70 °C.

`Cc1cc2c(cc1Sc1ccc(C(=O)O)c(O)c1)C(C)(C)CCC2(C)C` displayed a melting point of 74 to 75 °C.

On to `O=C(O)/C=C/c1c[nH]c2ccccc2c1=O`, for which the melting point is 242 to 244 °C.

On to `COC(C)(C)CNCc1cnc2c(C)c(NC(=O)c3ccc(OCC4CCOC4)cc3)ccc2c1` (stereo not given), for which the melting point was 137 °C.

`Cc1ccc2c(c1)N(C1CC1)CNS2(=O)=O` came in with a melting point of 157 to 158 °C.

In turn, `COC=C(C(=O)OC)c1ccccc1CC(=O)c1ccccc1Cl` came in with a melting point of 70 to 75 °C.

The compound `O=c1ncc(Br)cn1CC(O)C(Cl)(Cl)Cl` (stereo not given) returned a melting point of 210 to 212 °C.

The compound `O=c1[nH]c2cc(Cl)ccc2c(=O)n1S(=O)(=O)c1ccc(Cl)cc1` showed a melting point of 286 to 287 °C.

Regarding `CCOCCOc1cc(C(F)(F)F)cc(N(N)C(=CNS(C)(=O)=O)[N+](=O)[O-])n1`, the melting point came to 153 °C.

In turn, `CCCC#Cc1ccnc2c1c(C(C)=O)cn2S(=O)(=O)c1ccccc1` gave a melting point of 134 to 136 °C.

`CCC(C)COC(=O)C1(OC(=O)c2ccc(O)cc2)C=CC=CC1` (stereo not given) returned a melting point of 90.8 to 92.6 °C.

In turn, `CC1(C)N=C(c2ccccc2Cl)c2cc(N)ccc2-n2cnnc21` came in with a melting point of 264 °C.

For `CCOC(=O)C1=C(C)NC(C)=C(C(=O)OCC)C1c1ccccc1C`, the melting point fell in the range of 128 to 130 °C.

In turn, `CCc1nc2c(N)nc3ccccc3c2n1CCOCCNS(C)(=O)=O` displayed a melting point of 169 to 171 °C.

`CCCc1nn2ncc(C(=O)OCC)c2n1Cc1ccc(-c2ccccc2-c2nc(=O)o[nH]2)cc1` came in with a melting point of 227 to 228 °C.

For the compound `CCOCc1nc2c(N)nc3ccccc3c2n1CC(C)(C)CS(N)(=O)=O`, the melting point was in the range of 229 to 231 °C.

`COc1cc2c(cc1Nc1ncc(Cl)c(Nc3ccccc3S(=O)(=O)N(C)C)n1)CCN(CC(=O)N1CCCC1)CC2` displayed a melting point of 75 to 93 °C.

In turn, `CC(=O)c1cnc(Br)c(C)c1` displayed a melting point of 114 to 115 °C.

`CCOc1nc2cccc(C(=O)O)c2n1Cc1ccc(-c2ccccc2-c2nnn[nH]2)cc1` displayed a melting point of 183 to 185 °C.

`COc1ccc(C2(C#N)CC=C(C(=O)O)CC2)cc1OC1CCCC1` (stereo not given) had a melting point of 161 to 163 °C.

`Brc1cc2nc(NC3=NCCN3)[nH]c2cc1Br` came in with a melting point of 261 to 267 °C.

The compound `O=C(O)c1cc(Cl)c(Cl)c(-c2ccc(Cl)cc2)n1` gave a melting point of 229 °C.

Consider `COc1ccc(C2CNC(=O)O2)cc1OCc1ccccc1` (stereo not given), for which the melting point was in the range of 83 to 91 °C.

The compound `CCOC(=O)NNC(=O)NCCCCl` yielded a melting point of 105 to 106 °C.

`Cn1c(C(N)=O)c(-c2ccc(F)cc2)c2ncccc2c1=O` yielded a melting point of 300 to 301 °C.

`Cc1ccc(C)n1-c1cc(F)cc(F)c1` gave a melting point of 55 to 56 °C.

Compound `CC(C)Cc1ccc(CCc2cc3c(s2)NC(=O)C(c2ccccc2)N=C3c2ccccc2Cl)cc1` (stereo not given) came in with a melting point of 201 to 203 °C.

With `O=S(=O)(c1ccc(Cl)cc1)c1c(-c2ccc(Cl)cc2)[nH]c(C(F)(F)F)c1Br`, the melting point was over 230 °C.

For `Oc1cccc(COC=C2C3CC4CC(C3)CC2C4)c1`, the melting point lay within 133 to 134 °C.

For the compound `O=C(NO)c1ccc(C(=O)NOCC2CCc3ccccc3C2)cc1` (stereo not given), the melting point was 184 to 186 °C.

For `COC(=O)c1[nH]ccc1O`, the melting point is 100 to 102 °C.

For `CNC(=O)c1cc2c(nc(C)n2C)c2c1C[C@@H](O)[C@@H](c1ccccc1)N2`, the melting point fell in the range of 265 to 268 °C.

As for `OCCN1CCC(OC(c2ccccc2)c2ccccc2)CC1`, the melting point fell in the range of 83 to 85 °C.

The compound `COc1ccc(S(=O)(=O)Nc2cccc(C)c2NC(=O)c2cccnc2)cc1` showed a melting point of 207 to 209 °C.

For the compound `COc1cc(C)c(CCCCCCCCCCCCCCCCCCCCCCO)c(O)c1OC`, the melting point is 78 to 81 °C.

`CCOC(=O)CC(CCCNC(=O)c1csc(NC(=O)NCc2ccccc2)n1)c1ccccc1` (racemic) displayed a melting point of 93 °C.

In the case of `Cc1ccc(N)c(C#Cc2ccccc2)n1`, the melting point lay within 154 to 155 °C.

With `C1=Cc2ccccc2ON1`, the melting point lay in the range of 134 to 136 °C.

The compound `COc1c(C(=O)O)cccc1[N+](=O)[O-]` registered a melting point of 224 to 226 °C.

`CCCCn1c(O)c(N=Nc2ccc(S(=O)(=O)N(CC(C)O)CC(C)O)cc2)c(C)c(C#N)c1=O` (stereo not given) returned a melting point of 189 to 190 °C.

In turn, `CC(=O)c1cc(Br)cc(Cc2cc(Cl)cc(Cc3cc(Br)ccc3O)c2O)c1O` came in with a melting point of 185 to 186 °C.

`COC1=C(OC)C(=Nc2ccccc2)NC1=O` gave a melting point of 141 to 143 °C.

The compound `Cc1nc(N)sc1-c1ccnc(Nc2ccc3c(c2)OCO3)n1` gave a melting point of 211 to 213 °C.

`N#CCn1nnnc1S` came in with a melting point of 116 to 118 °C.

On to `Cc1ccc(N)cc1Nc1cc(-c2cncnc2)ccn1`, for which the melting point was 179 to 180 °C.

In the case of `Cc1sc(C=O)c(C)c1Br`, the melting point fell in the range of 44 to 45 °C.

`COc1cc(CNC(=S)NC(COC(=O)C(C)(C)C)Cc2ccc(C)c(C)c2)ccc1O` (stereo not given) came in with a melting point of 43 to 48 °C.

For `CNC(=O)C1(CCCN2CCCCC2)CC=CCC1c1ccccc1` (stereo not given), the melting point is 145 to 147 °C.

With `Cc1cc2cccc(-c3ccc(Cl)cc3Cl)n2n1`, the melting point lay in the range of 86.9 to 90 °C.

Take `O=[N+]([O-])c1cnccc1NCCCCO`: the melting point lay in the range of 80 to 82 °C.

On to `O=C1N=C(NN2CCOCC2)SC1=Cc1cccc(-c2cc(F)c(O)c(C34CC5CC(CC(C5)C3)C4)c2)c1`, for which the melting point fell in the range of 304 to 309 °C.

Consider `CN(C)S(=O)(=O)c1cccc2c1Sc1ccc(OC3CCCCO3)cc1N2CCCN1CCC(CCO)CC1` (stereo not given), for which the melting point fell in the range of 129 to 131 °C.

`NS(=O)(=O)c1ccc(-c2noc(-c3cnc4ccc(-c5ccc(C(F)(F)F)cc5)cn34)n2)cc1`: the melting point amounted to 288 °C.

`COc1ccc(C(=O)CC(=O)C(C)(C)C)cc1OC` showed a melting point of 52.3 to 53.3 °C.

For the compound `[N-]=[N+]=NCCOc1ccc(/C(=C(\c2ccccc2)C(F)(F)F)c2ccccc2)cc1`, the melting point lay within 110 to 118 °C.

Turning to `COc1cc(C(=O)N2CCCC2CO)c([N+](=O)[O-])cc1OC` (stereo not given), the melting point lay within 124 to 128 °C.

The compound `CCOc1ccccc1C1CN=C(NC(=O)OC)N1C` (stereo not given) returned a melting point of 137 to 138 °C.

Consider `O=c1[nH]cc(Oc2ccccc2)cc1-c1csc(-c2ccncc2)n1`, for which the melting point is 243 to 245 °C.

The compound `COc1ccc(-c2cnn(-c3cccc(C)n3)c(=O)c2)cc1` showed a melting point of 167 to 168 °C.

In the case of `COC(=O)c1ccc2[nH]cc(C3=CCN(C)CC3)c2c1`, the melting point was in the range of 202 to 204 °C.

Consider `CC(C)(CO)NS(=O)(=O)c1cccc(NC(=O)c2cnn3c(C(F)(F)F)cc(-c4ccc(C(F)(F)F)c(OCC(F)(F)F)c4)nc23)c1`, for which the melting point stood at 251 °C.

In turn, `Cc1c(CNc2cccc(N)n2)c(C)c(CNc2cccc(N)n2)c(C)c1CNc1cccc(N)n1` registered a melting point of 130 to 132 °C.

With `NS(=O)(=O)c1cc(C(=O)O)cc(SCc2ccccc2)c1Cl`, the melting point fell in the range of 241 to 242 °C.

As for `O=C1CCN(Cc2ccc(O)cc2)CC1C(c1ccccc1)c1ccccc1` (stereo not given), the melting point was 133 to 134 °C.

With `CCCCS(=O)(=O)Nc1ccc(C(=O)c2ccccc2)cc1`, the melting point fell in the range of 76 to 80 °C.

`CC(=O)N1CCN(C(=O)C2(C#N)Nc3cc(C)c(-c4ccccc4)c(N4CC[C@H](N(C)C)C4)c3O2)CC1` (stereo not given in full) displayed a melting point of 102 to 105 °C.

Compound `O=S1(=O)N(CCBr)c2ccccc2N1c1ccc(Cl)cc1` yielded a melting point of 86 to 89 °C.

`Cn1c(=O)c2c(ncn2CC(N)=NO)n(C)c1=O` had a melting point of 224 °C.

On to `O=C1c2ccccc2CCC1c1ccccc1` (stereo not given), for which the melting point was 69 °C.

On to `OC(COc1ccc(-c2ccc(Br)cc2)cc1)CN1CCCC1` (stereo not given), for which the melting point fell in the range of 121 to 122 °C.

For the compound `O=[N+]([O-])C1=C2N(CC3CCOC3)CCN2C2CCCC1O2` (stereo not given), the melting point lay within 115 to 117 °C.

Regarding `Nc1ccc2c(c1)S(=O)(=O)N=C2NCCCOc1cccc(CN2CCCCC2)c1`, the melting point was in the range of 191 to 193 °C.

`C=C(C)c1ccc2occ(C#N)c(=O)c2c1` returned a melting point of 142 to 144 °C.

With `CCS(=O)(=O)Nc1cc(N=c2sc(=S)n3n2CCCC3)c(F)cc1Cl`, the melting point was in the range of 146 to 148 °C.

`COC1=C(OC)C(=O)c2c(Cl)cccc2C1=O`: the melting point is 120 to 121 °C.

Consider `CCOC(=O)c1cnc2c(OC(F)F)c(F)ccc2c1O`, for which the melting point was 218 to 219 °C.

Regarding `O=C(O)c1ccc(NCc2cc(Cl)c(Cl)s2)cc1`, the melting point is 225 to 227 °C.

Turning to `Cc1cc(C)c2c(C)coc2c1Cc1ccc(C(C)C)cc1`, the melting point was 106 to 107 °C.

As to `C[C@H](NC(C#N)CCc1ccccc1)C(=O)O` (stereo not given in full), the melting point turned out to be 115 °C.

`CCOCc1cc2ccccc2oc1=Nc1ccc(Br)cc1` displayed a melting point of 73 to 74 °C.

`O=c1[nH]cnc2ccc(C(F)(F)F)cc12` displayed a melting point of 209 to 211 °C.

In turn, `CCC1c2cccn2-c2ccc(C(F)(F)F)cc2N1S(=O)(=O)c1ccc(O)cc1` (stereo not given) displayed a melting point of 181 to 183 °C.

Consider `CCCCCCCCCCCCCCCCSCC(O)COC(c1ccccc1)(c1ccccc1)c1ccccc1` (stereo not given), for which the melting point is 61 to 62 °C.

Consider `CC1(C)CC(OC(=O)c2ccc(CN(O)Cc3ccc(C(=O)OC4CC(C)(C)N(OC5CCCCC5)C(C)(C)C4)cc3)cc2)CC(C)(C)N1OC1CCCCC1`, for which the melting point lay in the range of 163 to 166 °C.

Compound `N#Cc1c(N2CCCCC2)cc(-c2cccc3ccccc23)c2c1-c1ccccc1C2=O` came in with a melting point of 180 to 182 °C.

For the compound `CCOc1cc2c(cc1OC)C(c1ccc(-c3nnn(CC)n3)cc1)=N[C@H]1CCCC[C@@H]21` (racemic), the melting point lay in the range of 167 to 170 °C.

Take `CC(=O)Nc1ccc(C=C(C(=O)C2CC2)C(=O)C2CC2)cc1`: the melting point is 166 to 167 °C.

As to `CC(C)Oc1ccc2c(=O)c3ccc(O)cc3oc2c1`, the melting point was 268 to 281 °C.

In turn, `CN1C(=S)C(C)(C)N=C1SCc1ccccc1N(C)C` came in with a melting point of 76 to 78 °C.

These data come from a melting point compilation (Tetko et al.; mined from patent text by program, amines drawn as free bases though some values may be those of a salt).
